# Experimental data: patent publication US8530512B2, “Broad spectrum gram-positive antimicrobials and anthelmintics with efficacy against drug-resistant strains and Mycobacterium species” (priority 2004, dated 2013)
# Where two headings read alike, the source gives them in different places.
# Legend:
# [1] = system: Enterococcus faecalis ATCC 29212; assay: microbe, parasite or virus in culture; format: cell-based; conditions: Enterococcus faecalis, ATCC29212
# Pseudomonas aeruginosa = assay: microbe, parasite or virus in culture; format: cell-based
# Bacillus anthracis = assay: microbe, parasite or virus in culture; format: cell-based
# Mycobacterium fortuitum = assay: MIC assay; format: cell-based; conditions: Mycolicibacterium fortuitum; Table 6; read-out: MIC M. fortuitum
# M. smegmatis = assay: MIC assay; format: cell-based; conditions: Mycolicibacterium smegmatis; Table 6; read-out: MIC M. smegmatis
# [2] = system: Streptococcus pneumoniae ATCC 49619; assay: microbe, parasite or virus in culture; format: cell-based; conditions: ATCC49619
# [3] = system: Corynebacterium pseudodiphthericum; assay: microbe, parasite or virus in culture; format: cell-based; conditions: Corynebacterium pseudodiphtheriticum
# Streptococcus mitis = assay: microbe, parasite or virus in culture; format: cell-based
# [4] = system: Gram-positive bacteria tested; assay: organism not typed; format: cell-based
# Streptococcus pyogenes = assay: microbe, parasite or virus in culture; format: cell-based
# Listeria monocytogenes = assay: microbe, parasite or virus in culture; format: cell-based
# Bacillus cereus = assay: microbe, parasite or virus in culture; format: cell-based
# [5] = system: methicillin-resistant Staphylococcus aureus; assay: microbe, parasite or virus in culture; format: cell-based
# [6] = system: several strains of bacteria; assay: Kirby-Bauer disc diffusion assay; format: cell-based; conditions: bioassay-directed fractionation
# Method: The crude extract was then fractionated by flash column chromatography, using a 42 mm ID column, silica gel 60 as the stationary phase, and CH2Cl2 as the eluting solvent. Typically, 100-150, 10 mL fractions were collected and assayed for microbial growth inhibition. […] The column fractions, including the active component, were also analyzed by thin-layer chromatography (TLC) using Baker-flex® silica gel IB2-F plates (with fluorescent indicator) and CH2Cl2 as the eluting solvent (see FIG. 1).
# Streptococcus agalactiae = assay: microbe, parasite or virus in culture; format: cell-based
# C. elegans L1 larvae = assay: developmental assay; format: in vivo; design: key to Developmental score, 1/1600 / Developmental score, 1/800 / Developmental score, 1/400 / Developmental score, 1/200 / Developmental score, 1/100: dead (+++); distressed (++); slightly delayed (+); the same as M9-only untreated wells (−); conditions: after four days, Ive 1 ng/μL in each well
# C. elegans = assay: motility assay; format: in vivo; design: key to Movement score, 1/1600 / Movement score, 1/800 / Movement score, 1/400 / Movement score, 1/200 / Movement score, 1/100: normal (−); slow (+); very slow (++); not motile/paralyzed (+++); conditions: Ive 1 ng/μL in all wells
# [7] = system: Staphylococcus aureus MRSA MC-4; assay: microbe, parasite or virus in culture; format: cell-based
# [8] = system: Staphylococcus aureus ATCC 29213; assay: microbe, parasite or virus in culture; format: cell-based; conditions: Staphylococcus aureus, ATCC29213
# Escherichia coli = assay: microbe, parasite or virus in culture; format: cell-based
# Bacillus megaterium = assay: microbe, parasite or virus in culture; format: cell-based; conditions: Priestia megaterium
# [9] = system: Enterococcus faecium VRE 14; assay: microbe, parasite or virus in culture; format: cell-based
# [10] = system: Corynebacterium diphtheriae Tox−; assay: microbe, parasite or virus in culture; format: cell-based
# [11] = system: Enterococcus faecium VRE 1; assay: microbe, parasite or virus in culture; format: cell-based
# Mycobacterium bovis BCG = assay: microbe, parasite or virus in culture; format: cell-based; conditions: Mycobacterium tuberculosis variant bovis BCG
# [12] = system: Gram-negative bacteria tested; assay: organism not typed; format: cell-based; conditions: read-out: MICs
# Mycobacterium chelonae = assay: MIC assay; format: cell-based; conditions: Table 6; read-out: MIC M. chelonae
# Corynebacterium xerosis = assay: microbe, parasite or virus in culture; format: cell-based
# [13] = system: Staphylococcus aureus ATCC 25923; assay: microbe, parasite or virus in culture; format: cell-based; conditions: ATCC25923
# [14] = system: vancomycin-resistant enterococci; assay: organism not typed; format: cell-based
# Bacillus subtilis = assay: microbe, parasite or virus in culture; format: cell-based
# [15] = system: Staphylococcus aureus MRSA MC-1; assay: microbe, parasite or virus in culture; format: cell-based; conditions: Staphylococcus aureus, MRSA
compound,measurement,setting,value
"COc1cc(O)cc(/C=C/c2ccccc2)c1 [CL-3, 3-hydroxy-5-methoxystilbene]",MIC,[1],16 µg/mL
same,MIC,Pseudomonas aeruginosa,> 128 µg/mL
same,MIC,Bacillus anthracis,4 µg/mL
same,MIC,Mycobacterium fortuitum,16 µg/mL
same,MIC,M. smegmatis,64 µg/mL
same,MIC,[2],8 µg/mL
same,MIC,[3],16 µg/mL
same,MIC,Streptococcus mitis,64 µg/mL
same,growth inhibition of Gram-positive bacteria,[4],inhibit the growth of all Gram-positive bacteria tested
same,MIC,Streptococcus pyogenes; Streptococcus pyogenes,16 µg/mL
same,"MIC S. pyogenes, G+",Streptococcus pyogenes; Table 3,16 µg/mL
same,MIC,Listeria monocytogenes,32 µg/mL
same,MIC,Bacillus cereus; Bacillus cereus,16 µg/mL
same,"MIC B. cereus, G+ (anthrax surrogate)",Bacillus cereus; Table 3,16 µg/mL
same,MIC,[5],32 µg/mL
same,growth inhibition,[6],inhibited the growth
same,MIC,Streptococcus agalactiae,32 µg/mL
same,"Developmental score, 1/100",C. elegans L1 larvae; dilution 1/100,+++
same,"Developmental score, 1/200",C. elegans L1 larvae; dilution 1/200,+
same,"Developmental score, 1/400",C. elegans L1 larvae; dilution 1/400,−
same,"Developmental score, 1/800",C. elegans L1 larvae; dilution 1/800,−
same,"Developmental score, 1/1600",C. elegans L1 larvae; dilution 1/1600,−
same,"Movement score, 1/100",C. elegans; dilution 1/100 of stock (10.24 μg/μL; SK-03-92 1.024 μg/μL),+++
same,"Movement score, 1/200",C. elegans; dilution 1/200 of stock (10.24 μg/μL; SK-03-92 1.024 μg/μL),+++
same,"Movement score, 1/400",C. elegans; dilution 1/400 of stock (10.24 μg/μL; SK-03-92 1.024 μg/μL),+
same,"Movement score, 1/800",C. elegans; dilution 1/800 of stock (10.24 μg/μL; SK-03-92 1.024 μg/μL),−
same,"Movement score, 1/1600","C. elegans; dilution 1/1600 of stock (10.24 μg/μL; SK-03-92 1.024 μg/μL), overnight 20° C.",−
same,MIC,[7],32 µg/mL
same,MIC,[8],32 µg/mL
same,MIC,"[8]; Table 6, read-out: MIC S. aureus ATCC 29213",16 µg/mL
same,MIC,Escherichia coli,> 128 µg/mL
same,MIC,Bacillus megaterium,64 µg/mL
same,MIC,[9],16 µg/mL
same,MIC,[10],32 µg/mL
same,MIC,"[11]; Enterococcus faecium, VRE",16 µg/mL
same,"MIC E. faecium VRE 1, G+",[11]; Table 3,32 µg/mL
same,MIC,"Mycobacterium bovis BCG; M bovis BCG, Example 3",25.6 µg/mL
same,MIC,"Mycobacterium bovis BCG; Table 2, Mycobacterium bovis BCG",26 µg/mL
same,MIC,[12],> 128 µg/mL
same,MIC,Mycobacterium chelonae,16 µg/mL
same,MIC,Corynebacterium xerosis,16 µg/mL
same,MIC,[13],32 µg/mL
same,MIC,[14],32 µg/mL
same,MIC,Bacillus subtilis,16 µg/mL
same,MIC,[15],32 µg/mL
same,MIC,[15]; read-out: MIC S. aureus MC-1,16 µg/mL
